Read-outs that look alike come from different tables or passages of the source.
How the values were obtained:
[1] = RPM extract 36 g/kg p.o., rat plasma, Mean ± SD, n = 6; ref Cheng et al., 2020; cited from earlier work
[2] = Tissue distribution of RPM constituents after oral RPM extract; details: Sprague-Dawley, rat, po, 18 g/kg
Procedure: For the tissue distribution study, 18 rats were randomly divided into three groups (n = 6, each) and orally administered 18 g/kg RPM extract. The rats under isoflurane anesthesia were sacrificed by bleeding from the abdominal aorta at 5, 15, and 60 min (six rats per time point) after gavage with 18 g/kg RPM extract. Subsequently, the heart, liver, spleen, lung, kidney, brain, stomach, small intestine, bladder, and gonads (testes of male rats, and uterus and ovaries of female rats) were immediately collected. An accurately weighed amount of fresh tissue sample (0.25 g) was individually homogenized with normal saline (1 ml) and transferred (50 μL) as a tissue homogenate to 1.5 ml centrifuge tubes for use as the tissue samples. All tissue samples were stored at −70°C until analysis.
Samples were prepared using the protein precipitation process. […] The tissue samples were homogenized in four parts of ice-cold 0.9% saline solution and then centrifuged at 4°C and 12,000 × g for 10 min to obtain tissue homogenates. […] Tissue homogenate, urine, bile and fecal samples were subjected to a similar process as the rat plasma samples.
For the tissue distribution study, 18 rats were randomly divided into three groups (n=6, each), and orally administered with 18 g/kg RPM extract. The rats were sacrificed at 5, 15, 60 min after orally administering RPM. Subsequently, the heart, liver, spleen, lung, kidney, brain, stomach, small intestine, bladder, gonad (testes of male rats, uterus and ovaries of female rats) were immediately collected. An accurately weighed amount of fresh tissue sample (0.25 g) was individually homogenized with normal saline (1 mL) and transferred (50 μL) as a tissue homogenate to 1.5 mL centrifuge tubes for use as the tissue samples.

[3] = Plasma pharmacokinetics of RPM constituents after oral RPM extract; details: for time at which C max was exhibited: RPM extract p.o.; for plasma concentrations: RPM extract 6, 18 and 36 g/kg p.o.
Source text: For the pharmacokinetic (PK) study, three groups (n = 6 each) of rats were orally administered RPM extract (6, 18, and 36 g/kg). In the plasma pharmacokinetics experiment, doses were 6, 18, and 36 g/kg for the single administration group and 18 g/kg for the continuous administration group. The doses were set at a subtoxic level ([Zhang et al., 2013]; [Wang et al., 2015]) to investigate the pharmacokinetic profiles of the constituents of RPM (36 g/kg group) and were approximately 60 times the upper dose (6 g/day) for humans recommended by the 2020 edition of Chinese Pharmacopoeia ([Chinese Pharmacopoeia Commission, 2020]), which was converted to a dose for rats based on body surface area conversion ([Reagan-Shaw et al., 2008]). In addition, the low and medium doses decreased in a certain proportion. Serial blood samples (∼120 μL; before dosing and at 5, 15, and 30 min, and 1, 2, 4, 6, 8, 12, and 24 h after administration) were collected in heparinized tubes from the orbital sinus under light isoflurane. The blood samples were centrifuged at 12000 g for 2 min, and the plasma fractions were decanted and frozen at −70°C until analysis.
Samples were prepared using the protein precipitation process. Rat plasma (50 μL) spiked with 10 μL of IS (puerarin 100 ng/ml) was extracted with 150 μL acetonitrile. After vortex shaking for 5 min and centrifugation at 14,000 g for 5 min, 150 μL of the organic layer was transferred to a clean tube and evaporated to dryness at 25°C under a stream of nitrogen. The residue was reconstituted in 50 μL of the initial mobile phase and subjected to another round of centrifugation at 14,000 g for 5 min, and 5 μL of the supernatant was injected for LC–MS/MS analysis.
The analysis was performed on an AB Sciex API 5500 Q Trap mass spectrometer (Toronto, Canada), interfaced with a Waters Acquity UPLC separation module.
(§1) The pharmacokinetic parameters, including the area under the plasma concentration-time curve from time zero to time t (AUC0-t) to time infinity (AUC0-∞), the time to reach the maximum plasma concentration (T max), the elimination half-time (t 1/2), and the maximum plasma concentration (C max), were calculated using the pharmacokinetic software Phoenix® WinNonlin®, version 7.0 (Scientific Consulting Inc., Apex, NC, United States). Data are expressed as the mean ± standard deviation (SD) for each group. The dose-exposure relationship was evaluated by the power function model combined with the confidence interval method ([Smith et al., 2000]; [Sethuraman et al., 2007]; [Hummel et al., 2009]). First, the administration dose, AUC0-∞ and C max were logarithmically transformed, and then a linear regression was performed to obtain the curve correlation coefficient (R^2), slope and 90% confidence interval (90% CI).

[4] = Excretion into urine and feces and mass balance after oral RPM extract; details: for dose excreted: Sprague-Dawley, rat, po; for cumulative excretion into urine / detection in urine: rat urine
Procedure: (§2) For the excretion study, the rats were housed singly in metabolic cages with urine collection tubes kept at 4 °C during sample collection. Urine and fecal samples were collected at time intervals of 0–4, 4–8, 8–24, 24–32, and 32–48 h after a single dose of RPM extract at 18 g/kg and then weighed. Another six rats were anesthetized with pentobarbital, fixed in the supine position and subjected to bile duct drainage surgery, and the abdominal wound was sutured. Blank bile samples were collected before the administration of RPM. The rats were weighed, and the state of the rats was observed. Subsequently, they were orally administered 18 g/kg RPM extract. The bile samples were collected at time intervals of 0–1, 1–2, 2–4, 4–6, 6–8, 8–24, 24–32 and 32–48 h. The urine, feces, and bile samples were stored at −70°C until use.
(§3) Samples were prepared using the protein precipitation process. […] After vortex shaking for 5 min and centrifugation at 14,000 g for 5 min, 150 μL of the organic layer was transferred to a clean tube and evaporated to dryness at 25°C under a stream of nitrogen. The residue was reconstituted in 50 μL of the initial mobile phase and subjected to another round of centrifugation at 14,000 g for 5 min, and 5 μL of the supernatant was injected for LC–MS/MS analysis. […] Urine and bile samples were centrifuged at 4°C and 12,000 × g for 15 min. Fecal samples were homogenized in 0.9% saline and then centrifuged at 4°C and 12,000 × g for 15 min to gather the fecal homogenates. Tissue homogenate, urine, bile and fecal samples were subjected to a similar process as the rat plasma samples.
(§4) For the excretion study, 6 rats were placed in metabolic cage after orally administered with 18 g/kg RPM extract, and urine, feces samples were collected at time intervals of 0–4, 4–8, 8–24, 24–32, 32–48, 48–60, and 60–72 h. Another 6 rats were anesthetized with pentobarbital, fixed in the supine position and performed bile duct drainage operation, and the abdominal wound was sutured. […] Subsequently, they were orally administered with 18 g/kg RPM extract. The bile samples were collected at time intervals of 0–1, 1–2, 2–4, 4–6, 6–8, 8–24, 24–32 and 32–48 h. The urine, feces, and bile samples were stored at −70 °C until use.

[5] = Dose-exposure relationship (power function model with confidence interval method)
Procedure: as §1

[6] = Biliary excretion in bile duct drained rats after oral RPM extract; details: single p.o. RPM extract 18 g/kg, rat bile
Procedure: as §2, §3, §4

[7] = Sprague-Dawley, rat, plasma, po, 6 g/kg
[8] = Sprague-Dawley, rat, plasma, po, 18 g/kg
[9] = feces, Recovery in feces (%), mass balance, 18 g/kg RPM extract p.o., feces collected 0–72 h
[10] = urine, Recovery in urine (%), mass balance, 18 g/kg RPM extract p.o., urine collected 0–72 h
[11] = single p.o. RPM extract 18 g/kg, rat feces
[12] = single p.o. RPM extract 18 g/kg
[13] = AUC0-∞ vs p.o. dose of RPM extract, critical interval 0.88–1.12
[14] = C max vs p.o. dose of RPM extract, critical interval 0.80–1.20
[15] = log AUC0-∞ vs log p.o. dose of RPM extract, critical interval 0.88–1.12
[16] = log C max vs log p.o. dose of RPM extract, critical interval 0.80–1.20
[17] = both, bladder, AUC0-t in bladder, rat tissue: bladder, 18 g/kg RPM extract p.o., tissues collected at 5, 15, 60 min
[18] = both, heart, AUC0-t in heart, rat tissue: heart, 18 g/kg RPM extract p.o., tissues collected at 5, 15, 60 min
[19] = both, intestine, AUC0-t in intestine, rat tissue: intestine, 18 g/kg RPM extract p.o., tissues collected at 5, 15, 60 min
[20] = both, kidney, AUC0-t in kidney, rat tissue: kidney, 18 g/kg RPM extract p.o., tissues collected at 5, 15, 60 min
[21] = both, liver, AUC0-t in liver, rat tissue: liver, 18 g/kg RPM extract p.o., tissues collected at 5, 15, 60 min
[22] = both, lung, AUC0-t in lung, rat tissue: lung, 18 g/kg RPM extract p.o., tissues collected at 5, 15, 60 min
[23] = both, spleen, AUC0-t in spleen, rat tissue: spleen, 18 g/kg RPM extract p.o., tissues collected at 5, 15, 60 min
[24] = both, stomach, AUC0-t in stomach, rat tissue: stomach, 18 g/kg RPM extract p.o., tissues collected at 5, 15, 60 min
[25] = female, uterus, AUC0-t in uterus, rat tissue: uterus, 18 g/kg RPM extract p.o., tissues collected at 5, 15, 60 min
[26] = female, ovary, AUC0-t in ovary, rat tissue: ovary, 18 g/kg RPM extract p.o., tissues collected at 5, 15, 60 min
[27] = urine and feces, recovery from the urine and feces, single p.o. RPM extract 18 g/kg, rats

O=C1c2cccc(O)c2C(=O)c2c(O)cc(CO)cc21 [Aloe-emodin, aloe-emodin]
AUC0-∞ [1]: 31.3 ± 12.7 nM·h
AUC(0-t) [1]: 27.0 ± 12.0 nM·h
Cmax [1]: 42 ± 11.5 nM
AUC(0-t) ([2]; both, brain): 1.06 nM·h
AUC(0-t) ([2]; both, heart): 16.9 nM·h
AUC(0-t) ([2]; both, intestine): 7.33 nM·h
AUC(0-t) ([2]; both, kidney): 9.77 nM·h
AUC(0-t) ([2]; both, liver): 55.5 nM·h
AUC(0-t) ([2]; both, lung): 31.3 nM·h
AUC(0-t) ([2]; both, spleen): 52.5 nM·h
AUC(0-t) ([2]; both, stomach): 23.8 nM·h
AUC(0-t) ([2]; female, ovary): 6.66 nM·h
time at which C max was exhibited ([3]; rat plasma): ≤ 20 min
AUC(0-inf) [3, 7]: 12.4 ± 7 nM·h
AUC(0-t) [3, 7]: 8.32 ± 4.16 nM·h
Cmax [3, 7]: 8.25 ± 7.47 nM
MRT inf [3, 7]: 9.61 ± 8.77 h
Tmax [3, 7]: 0.29 ± 0.1 h
half-life [3, 7]: 8.46 ± 7.14 h
AUC(0-inf) [3, 8]: 32.4 ± 14.4 nM·h
AUC(0-t) [3, 8]: 25.4 ± 9.7 nM·h
Cmax [3, 8]: 31.7 ± 3.03 nM
MRT inf [3, 8]: 4.65 ± 3.53 h
half-life [3, 8]: 5.09 ± 3.38 h
dose excreted [4, 9]: 21.7%
dose excreted ([4]; urine and feces, Recovery in urine and feces (%), mass balance, 18 g/kg RPM extract p.o., urine plus feces, 0–72 h): 31.4%
dose excreted [4, 10]: 9.69%
cumulative excretion into feces [4, 11]: 43.7 ± 6.18 nmol
cumulative excretion into urine [4, 12]: 19.3 ± 5.44 nmol
Conclusion (dose-exposure relationship) [5, 13]: Uncertainty of linear relationship
Conclusion (dose-exposure relationship) [5, 14]: Uncertainty of linear relationship
Slope (90%CI) [5, 15]: 0.582 (0.278–0.885)
Slope (90%CI) [5, 16]: 1.07 (0.795–1.35)
cumulative excretion into bile [6]: 61.1 ± 8.66 nmol

Cc1cc(O)c2c(c1)C(=O)c1cccc(O[C@@H]3O[C@H](CO)[C@@H](O)[C@H](O)[C@H]3O)c1C2=O [CG, chrysophanol-8-O-β-D-glucoside]
plasma concentrations ([3]; rat plasma): too low to be detected

Cc1cc(O)c2c(c1)C(=O)c1cccc(O)c1C2=O [Chrysophanol]
AUC0-∞ [1]: 40.4 ± 7.36 nM·h
AUC(0-t) [1]: 16.9 ± 6.47 nM·h
Cmax [1]: 7.48 ± 2.21 nM
AUC(0-t) [2, 17]: 37.6 nM·h
AUC(0-t) [2, 18]: 31.1 nM·h
AUC(0-t) [2, 19]: 27.7 nM·h
AUC(0-t) [2, 20]: 13.2 nM·h
AUC(0-t) [2, 21]: 27.3 nM·h
AUC(0-t) [2, 22]: 47.6 nM·h
AUC(0-t) [2, 23]: 50.3 nM·h
AUC(0-t) ([2]; both, spleen, AUC0-t in the spleen, RPM extract 18 g/kg p.o., rat spleen, sampling 5, 15, 60 min): 50.3 nM·h
AUC(0-t) [2, 24]: 34.5 nM·h
AUC(0-t) [2, 25]: 29 nM·h
AUC(0-inf) [3, 7]: 340 ± 195 nM·h
AUC(0-t) [3, 7]: 74.8 ± 58.9 nM·h
Cmax [3, 7]: 9.36 ± 3.26 nM
MRT inf [3, 7]: 40.3 ± 23.3 h
Tmax [3, 7]: 1.03 ± 0.96 h
half-life [3, 7]: 26.3 ± 14.4 h
AUC(0-t) [3, 8]: 19.8 ± 9.41 nM·h
Cmax [3, 8]: 7.87 ± 2.19 nM
Tmax [3, 8]: 3.51 ± 3.06 h
Conclusion (dose-exposure relationship) [5, 13]: Nonlinear correlation
Conclusion (dose-exposure relationship) [5, 14]: Nonlinear correlation
Slope (90%CI) [5, 15]: –0.667 (–1.14 to –0.193)
Slope (90%CI) [5, 16]: –0.158 (-0.337–0.021)

COc1cc(O[C@@H]2O[C@H](CO)[C@@H](O)[C@H](O)[C@H]2O)c2c(c1)C(=O)c1cc(C)cc(O)c1C2=O [PG, physcion-8-O-β-D-glucoside]
AUC0-∞ [1]: 188 ± 18.6 nM·h
AUC(0-t) [1]: 178 ± 20.1 nM·h
Cmax [1]: 42.1 ± 10.9 nM
MRT0-∞ [1]: 8.58 ± 1.72 h
t 1/2 [1]: 6.13 ± 1.06 h
AUC(0-t) [2, 17]: 205 nM·h
AUC(0-t) ([2]; both, brain, AUC0-t in brain, rat tissue: brain, 18 g/kg RPM extract p.o., tissues collected at 5, 15, 60 min): 125 nM·h
AUC(0-t) [2, 18]: 1640 nM·h
AUC(0-t) [2, 19]: 692 nM·h
AUC(0-t) [2, 20]: 3210 nM·h
AUC(0-t) [2, 21]: 3380 nM·h
AUC(0-t) [2, 22]: 842 nM·h
AUC(0-t) [2, 23]: 2690 nM·h
AUC(0-t) [2, 24]: 1290 nM·h
AUC(0-t) [2, 26]: 614 nM·h
AUC(0-t) [2, 25]: 735 nM·h
AUC(0-t) ([2]; male, testis, AUC0-t in testis, rat tissue: testis, 18 g/kg RPM extract p.o., tissues collected at 5, 15, 60 min): 80.6 nM·h
time at which C max was exhibited ([3]; rat plasma): ≤ 20 min
AUC(0-inf) [3, 7]: 91.9 ± 14.5 nM·h
AUC(0-t) [3, 7]: 77.7 ± 6.12 nM·h
Cmax [3, 7]: 16.8 ± 4.1 nM
MRT inf [3, 7]: 7.55 ± 1.48 h
Tmax [3, 7]: 0.29 ± 0.1 h
half-life [3, 7]: 4.83 ± 0.99 h
AUC(0-inf) [3, 8]: 192 ± 12.6 nM·h
AUC(0-t) [3, 8]: 176 ± 16.8 nM·h
Cmax [3, 8]: 34.2 ± 4.59 nM
MRT inf [3, 8]: 9.64 ± 2.05 h
Tmax [3, 8]: 0.26 ± 0.13 h
half-life [3, 8]: 7.09 ± 2.12 h
dose excreted [4, 9]: 11.6%
dose excreted [4, 27]: 16.4%
dose excreted [4, 10]: 4.83%
cumulative excretion into feces [4, 11]: 13.6 ± 1.12 nmol
cumulative excretion into urine [4, 12]: 5.53 ± 2.08 nmol
Conclusion (dose-exposure relationship) [5, 13]: Nonlinear correlation
Conclusion (dose-exposure relationship) [5, 14]: Nonlinear correlation
Slope (90%CI) [5, 15]: 0.429 (0.326–0.532)
Slope (90%CI) [5, 16]: 0.524 (0.396–0.652)
cumulative excretion into bile [6]: 18.2 ± 3.29 nmol

COc1cc(O)cc2c1C(=O)c1c(O)cc(CO)cc1C2=O [Questinol, questinol]
AUC0-∞ [1]: 57.5 ± 9.45 nM·h
AUC(0-t) [1]: 47.3 ± 6.85 nM·h
Cmax [1]: 4 ± 0.673 nM
MRT0-∞ [1]: 13.6 ± 4.21 h
T max [1]: 4.38 ± 4.03 h
t 1/2 [1]: 8.90 ± 2.70 h
AUC(0-t) [2, 17]: 16.9 nM·h
AUC(0-t) [2, 18]: 34 nM·h
AUC(0-t) [2, 20]: 24.3 nM·h
AUC(0-t) [2, 21]: 55.3 nM·h
AUC(0-t) [2, 22]: 25.1 nM·h
AUC(0-t) [2, 23]: 10.3 nM·h
AUC(0-t) [2, 24]: 6.1 nM·h
AUC(0-t) [2, 26]: 16.8 nM·h
AUC(0-t) [2, 25]: 18.6 nM·h
AUC(0-inf) [3, 7]: 27 ± 22.8 nM·h
AUC(0-t) [3, 7]: 8.61 ± 1.69 nM·h
Cmax [3, 7]: 1.09 ± 0.317 nM
MRT inf [3, 7]: 12.2 ± 2.93 h
Tmax [3, 7]: 3.5 ± 2.17 h
half-life [3, 7]: 8 ± 2.01 h
AUC(0-inf) [3, 8]: 58.3 ± 14.3 nM·h
AUC(0-t) [3, 8]: 40.1 ± 8.98 nM·h
Cmax [3, 8]: 3.54 ± 0.652 nM
MRT inf [3, 8]: 20.6 ± 13.5 h
Tmax [3, 8]: 1.83 ± 1.8 h
half-life [3, 8]: 14.4 ± 9.99 h
dose excreted [4, 27]: 4.12%
cumulative excretion into feces [4, 11]: 0.566 ± 0.0666 nmol
detection in urine [4, 12]: not have been detected
Conclusion (dose-exposure relationship) [5, 13]: Nonlinear correlation
Conclusion (dose-exposure relationship) [5, 14]: Uncertainty of linear relationship
Slope (90%CI) [5, 15]: 0.551 (0.275–0.827)
Slope (90%CI) [5, 16]: 0.774 (0.610–0.938)
detection in bile [6]: not detected

O=C(O)c1cc(O)c2c(c1)C(=O)c1cccc(O)c1C2=O [Rhein, rhein]
AUC0-∞ [1]: 8.14 ± 1.78 nM·h
AUC(0-t) [1]: 3.91 ± 2.23 nM·h
Cmax [1]: 3.74 ± 0.84 nM
Cmax ([3]; RPM extract 18 g/kg p.o., rat plasma, Mean ± SD, n = 6): 3.72 ± 1.25 nM
AUC(0-t) [3, 8]: 4.26 ± 2.99 nM·h
Tmax [3, 8]: 0.42 ± 0.14 h
plasma concentration ([3]; rats dosed with 6 g/kg RPM, plasma): could not be detected
detection in feces [4, 11]: not detected
detection in urine [4, 12]: not detected
Conclusion (dose-exposure relationship) [5, 14]: Nonlinear correlation
Slope (90%CI) [5, 16]: 0.034 (-0.482–0.550)
cumulative excretion into bile [6]: 45.0 ± 8.41 nmol

COc1cc(O)cc2c1C(=O)c1c(O)cc(C)cc1C2=O [questin]
plasma concentrations ([3]; rat plasma): too low to be detected

Source: paper PMC8899820, “Pharmacokinetics, Tissue Distribution, and Excretion Characteristics of a Radix Polygoni Multiflori Extract in Rats” (Frontiers in Pharmacology, 2022)
